Each structure is given as a SMILES string. Like-named read-outs stand apart in the source and are kept apart here.

Assay [1] concerns LPS induced TNFα production in THP-1 cells. The assay is described as follows: LPS induced THP-1 cell cytokine production assay, TNFα (HTRF). In kind it is cell-based. The conditions noted are these: Homo sapiens. How it is done: (§1) Provided compounds were also assayed in an LPS (Lipopolysacharide) induced THP-1 cell cytokine (TNFα and IL8) production assay. The protocol for this assay was as follows below. THP-1 cells from ATCC (TIB-202) were cultured in RPMI Medium 1640 (Invitrogen, Cat No. […] LPS-EK ultra pure (Invivogen, Cat No. tlrl-peklps) was used to induce IL8 and TNFα production, that was detected in the cell culture supernatant by IL8 HTRF kit (Cisbio, Cat No. 62IL8PEB) and TNFα HTRF kit (Cisbio, Cat No. 62[…]), as per manufacturer instructions. Cells were cultured in 96 well assay plates at 100,000 cells per well, and compounds diluted in final 0.3% DMSO were pre-incubated with cells for 1 hour prior to stimulation with 300 ng/mL LPS. […] The compound numbers correspond to the compound numbers in Table 1.
In general terms: TR-FRET usually uses a lanthanide donor and a delayed reading to cut background.

For assay [2], the system named is LPS induced IL8 production in THP-1 cells. The assay can be described thus: LPS induced THP-1 cell cytokine production assay, IL8 (HTRF). In kind it is cell-based. The conditions noted are these: Homo sapiens. On the procedure: as §1
The target of a further assay is T1, IRAK4 (Homo sapiens, UniProt Q9NWZ3).
T1 construct: purchased CARNA Bioscience 09-145
T1 sequence (Q9NWZ3 1-460): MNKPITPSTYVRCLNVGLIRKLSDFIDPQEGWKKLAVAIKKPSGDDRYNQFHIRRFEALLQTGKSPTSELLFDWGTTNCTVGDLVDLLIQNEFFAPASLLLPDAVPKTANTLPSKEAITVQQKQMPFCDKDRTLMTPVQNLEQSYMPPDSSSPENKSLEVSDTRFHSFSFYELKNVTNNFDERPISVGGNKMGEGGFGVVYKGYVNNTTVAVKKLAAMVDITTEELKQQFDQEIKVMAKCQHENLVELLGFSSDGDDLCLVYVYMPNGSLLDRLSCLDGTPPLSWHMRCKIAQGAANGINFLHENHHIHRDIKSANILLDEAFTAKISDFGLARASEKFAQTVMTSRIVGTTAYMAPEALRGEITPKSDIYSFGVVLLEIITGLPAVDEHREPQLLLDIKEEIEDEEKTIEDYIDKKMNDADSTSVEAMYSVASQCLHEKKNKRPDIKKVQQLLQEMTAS
The assay is described as follows: IRAK-4 activity inhibition assay (Caliper, Peptide 8, 37 μM ATP). In kind it is biochemical. The conditions noted are these: 3.5 nM IRAK4, 1.5 μM Peptide 8, 37 μM ATP, 28° C. 40 minutes; read-out: IRAK-4 activity inhibition IC50.

[3] abbreviates: THP-1 cells, 300 ng/mL LPS, 1 hour pre-incubation, supernatant at 5 hours, read-out: TNFα production IC50.
[4] abbreviates: THP-1 cells, 300 ng/mL LPS, 1 hour pre-incubation, supernatant at 5 hours / 16 hours, read-out: IL8 production IC50.

As for `CN(C)[C@H]1CC[C@H](Nc2nc(Nc3ccccc3)nc3sc4c(c23)CCC4)CC1` [Compound I-201, 12-N-[4-(dimethylamino)cyclohexyl]-10-N-phenyl-7-thia-9,11-diazatricyclo[6.4.0.0[2,6]]dodeca-1(8),2(6),9,11-tetraene-10,12-diamine], the half-inhibitory concentration (IC50) in assay [1] (setting [3]) and in assay [2] (setting [4]) was 1 to 5 µM each time.

For the compound `CN(CC(=O)N1CCCC1)[C@H]1CC[C@H](Nc2ncnc3sc4c(c23)CCC4)CC1` [Compound I-124, 2-[methyl[4-([7-thia-9,11-diazatricyclo[6.4.0.0[2,6]]dodeca-1(12),2(6),8,10-tetraen-12-yl]amino)cyclohexyl]amino]-1-(pyrrolidin-1-yl)ethan-1-one], the IC50 at IRAK4 was < 5 µM; in assay [1] (setting [3]), 1 to 5 µM; in assay [2] (setting [4]), 0.5 to 1 µM. For the compound `CN(C)[C@H]1CC[C@H](Nc2ncnc3sc4c(c23)CCC4)CC1` [Compound I-12, trans-N^1-(6,7-dihydro-5H-cyclopenta[4,5]thieno[2,3-d]pyrimidin-4-yl)-N^4,N^4-dimethylcyclohexane-1,4-diamine], the IC50 in assay [1] (THP-1, read-out: TNFα production IC50) lay in the range of 0.5 to 1 µM; in assay [2] (THP-1, read-out: IL8 production IC50), 0.5 to 1 µM. With `CN(Cc1cccc(CO)c1)[C@H]1CC[C@H](Nc2ncnc3sc4c(c23)CCC4)CC1` [Compound I-165, [3-([methyl[4-([7-thia-9,11-diazatricyclo[6.4.0.0^[2,6]]dodeca-1(8),2(6),9,11-tetraen-12-yl]amino)cyclohexyl]amino]methyl)phenyl]methanol], the IC50 at IRAK4 was < 5 µM. On the same count and under the same terms, under `O=C(CN(CC(=O)N1CCCC1)[C@H]1CC[C@H](Nc2ncnc3sc4c(c23)CCC4)CC1)N1CCCC1` [Compound I-136, trans-2-[[2-oxo-2-(pyrrolidin-1-yl)ethyl][4-([7-thia-9,11-diazatricyclo[6.4.0.0[2,6]]dodeca-1(8),2(6),9,11-tetraen-12-yl]amino)cyclohexyl]amino]-1-(pyrrolidin-1-yl)ethan-1-one] stands 5 to 20 µM. Still for that read-out and setting: under `c1nc(NCCN2CCNCC2)c2c3c(sc2n1)CCC3` [Compound I-147, N-(2-(piperazin-1-yl)ethyl)-6,7-dihydro-5H-cyclopenta[4,5]thieno[2,3-d]pyrimidin-4-amine] stands > 50 µM.

In the case of `O=C(CN[C@H]1CC[C@H](Nc2ncnc3sc4c(c23)CCC4)CC1)N1CCCC1` [Compound I-134, trans-1-(pyrrolidin-1-yl)-2-[[4-([7-thia-9,11-diazatricyclo[6.4.0.0[2,6]]dodeca-1(8),2(6),9,11-tetraen-12-yl]amino)cyclohexyl]amino]ethan-1-one], the IC50 at IRAK4 is < 5 µM. Same read-out and setting: under `CN(CCC(=O)O)[C@H]1CC[C@H](Nc2ncnc3sc4c(c23)CCC4)CC1` [Compound I-108, 3-[methyl[4-([7-thia-9,11-diazatricyclo[6.4.0.0^[2,6]]dodeca-1(8),2(6),9,11-tetraen-12-yl]amino)cyclohexyl]amino]propanoic acid] stands < 5 µM.

Turning to `Cc1sc2ncnc(N3CCC(C(N)=O)CC3)c2c1C` [Compound I-18], the IC50 at IRAK4 lay in the range of 20 to 50 µM. Same read-out and setting: as for `CC1(C)CCc2sc3ncnc(N4CCC(C(N)=O)CC4)c3c2C1` [Compound I-46], the figure is 20 to 50 µM. The same measure, in the same setting: under `OC1CCCC(Nc2ncnc3sc4c(c23)CCC4)C1` (mixture of isomers) [Compound I-15, 3-((6,7-dihydro-5H-cyclopenta[4,5]thieno[2,3-d]pyrimidin-4-yl)amino)cyclohexanol] stands 5 to 20 µM; under `c1nc(N[C@H]2CC[C@H](N3CCCC3)CC2)c2c3c(sc2n1)CCC3` [Compound I-142, N-((1r,4r)-4-(pyrrolidin-1-yl)cyclohexyl)-6,7-dihydro-5H-cyclopenta[4,5]thieno[2,3-d]pyrimidin-4-amine], < 5 µM; under `Cc1sc2ncnc(N3CCC(C(=O)NCc4ccc(S(N)(=O)=O)cc4)CC3)c2c1C` [Compound I-25], 5 to 20 µM. On the same count and under the same terms, under `CC(C)N[C@H]1CC[C@H](Nc2ncnc3sc4c(c23)CCC4)CC1` [Compound I-157, 1-N-(propan-2-yl)-4-N-[7-thia-9,11-diazatricyclo[6.4.0.0^[2,6]]dodeca-1(8),2(6),9,11-tetraen-12-yl]cyclohexane-1,4-diamine] stands < 5 µM. With `CN(C)C(=O)CN(C)[C@H]1CC[C@H](Nc2ncnc3sc4c(c23)CCC4)CC1` [Compound I-131, N,N-dimethyl-2-[methyl[4-([7-thia-9,11-diazatricyclo[6.4.0.0[2,6]]dodeca-1(12),2(6),8,10-tetraen-12-yl]amino)cyclohexyl]amino]acetamide], the IC50 at IRAK4 was < 5 µM. On to `CN(C)[C@H]1CC[C@H](Nc2ncnc3sc4c(c23)CCCC4)CC1` [Compound I-50, trans-N^1,N^1-dimethyl-N^4-(5,6,7,8-tetrahydrobenzo[4,5]thieno[2,3-d]pyrimidin-4-yl)cyclohexane-1,4-diamine], for which the IC50 on IRAK4 is < 5 µM.

For `CN(CCc1ccccc1)[C@H]1CC[C@H](Nc2ncnc3sc4c(c23)CCC4)CC1` [Compound I-168, 1-N-methyl-1-N-(2-phenylethyl)-4-N-[7-thia-9,11-diazatricyclo[6.4.0.0^[2,6]]dodeca-1(8),2(6),9,11-tetraen-12-yl]cyclohexane-1,4-diamine], the IC50 at IRAK4 is < 5 µM. In the case of `c1nc(NCC2CCNCC2)c2c3c(sc2n1)CCC3` [Compound I-59], the IC50 at IRAK4 lay in the range of 20 to 50 µM. The same measure, in the same setting: as for `C[C@@H]1CCc2sc3ncnc(N[C@H]4CC[C@H](N(C)C)CC4)c3c2C1` [Compound I-56, trans-N^1,N^1-dimethyl-N^4-((R)-6-methyl-5,6,7,8-tetrahydrobenzo[4,5]thieno[2,3-d]pyrimidin-4-yl)cyclohexane-1,4-diamine], the figure is < 5 µM. On to `CN(CC(=O)N1CCCC1)[C@H]1CC[C@H](Oc2ncnc3sc4c(c23)CCC4)CC1` [Compound I-133], for which the IC50 on IRAK4 is < 5 µM; in assay [1] (setting [3]), 1 to 5 µM; in assay [2] (setting [4]), 1 to 5 µM. With `CN(C)[C@H]1CC[C@H](COc2ncnc3sc4c(c23)CCC4)CC1` [Compound I-148, (1r,4r)-4-(((6,7-dihydro-5H-cyclopenta[4,5]thieno[2,3-d]pyrimidin-4-yl)oxy)methyl)-N,N-dimethylcyclohexanamine], at IRAK4, the IC50 was in the range of 20 to 50 µM.

For `CC(C)CN(C)[C@H]1CC[C@H](Nc2ncnc3sc4c(c23)CCC4)CC1` [Compound I-127, 1-N-methyl-1-N-(2-methylpropyl)-4-N-[7-thia-9,11-diazatricyclo[6.4.0.0[2,6]]dodeca-1(8),2(6),9,11-tetraen-12-yl]cyclohexane-1,4-diamine], the IC50 at IRAK4 is < 5 µM.

Consider `CNC1CCCC(Oc2ncnc3sc4c(c23)CCC4)CC1` (centres unmarked) [Compound I-113, N-methyl-4-[7-thia-9,11-diazatricyclo[6.4.0.0^[2,6]]dodeca-1(12),2(6),8,10-tetraen-12-yloxy]cycloheptan-1-amine], for which, on IRAK4, the IC50 is 5 to 20 µM.

A word on the IC50: it is the point on the concentration scale where inhibition reaches its midpoint.

(Values after US9340554B2, “IRAK inhibitors and uses thereof” (Nimbus Iris, Inc., priority 2011, dated 2016).)
